Test results published in patent publication US9056048B2, “Synthesis and use of cationic steroids for anti-inflammatory drug therapy” (priority 2001, dated 2015).
Values after ≈ are worked out from the molar mass of the structure shown.

Experiments:
mouse lungs = assay: AdV vector formulated with lipid, intranasal delivery to mouse lungs; assay type: in vivo, C57Bl/6 mice; design: key: 0 (normal, no inflammation); mild (+) monocytic infiltrate and congestion; +++ (extensive inflammation); details: day 7
Text: E1/E3-deleted replication-deficient, recombinant adenovirus vectors (2-4.5×10^12 GC/ml stock) expressing either a LacZ or a AlkP reporter were created as previously described in Gao et al. (1996, J. Virol. 70:8934-8943) by homologous recombination between the shuttle plasmid that carries the transgene and the 5′ end of the adenovirus genome with E1 deleted and 3′ end of H5.sub360 in which the E3 gene was inactivated by a small deletion. The recombinant viruses were propagated in 293 cells and purified by the standard CsCl gradient sedimentation method. The replication-deficient AAV2/5CBntLacZ contains the LacZ gene with a nucleus localization sequence at its N-terminus, under the transcriptional control of the chicken h-actin promoter. The AAV (2/5) vector (˜2×10^12 GC/ml stock) was produced by transcapsidation in 293 cells using a triple transfection method and purified by CsCl gradient sedimentation as described in Gao et al. (2002, Proc. Natl. Acad. Sci. USA 99:11854-11859).
C57Bl/6 mice (6 to 8 weeks of age) were anesthetized by an i.p. injection of a 3:2 mixture of xylazil (20 mg/ml):ketamine (100 mg/ml). For dosing, mice were suspended from their dorsal incisors (hind quarters supported) and a dose of 10^11 GC of AdV or AAV vector was delivered as a 50-μl bolus into the nostrils using a gel-loading tip (Finnpippette). […]

osteoblasts = assay: In vitro bone culture inflammatory model, qRT-PCR transcripts; assay type: cell-based, murine; details: for reduction in IL-6 transcripts over control: qRT-PCR normalized to GAPDH; for OPG/RANKL ratio: transcripts, qRT-PCR
Procedure: For co-cultures with osteoblasts, bone marrow cells (1×10^5 cells/well in 96-well plates) were co-cultured with calvarial osteoblasts (1×10^4 cells/well) in α-minimal essential medium containing 10% fetal bovine serum and supplemented with 20 nM 1α, 25(OH)2D3 and 1 μM prostaglandin E2 (PGE2) for 9 days. […] Co-cultures treated with Vitamin D3 (VitD3) were treated at 20 nM.
For transcript analysis, total RNA was isolated using the Absolutely RNA microprep kit (Stratagene, La Jolla, Calif.). RNA was reverse transcribed using Superscript III reverse transcriptase and oligo(dT) (Invitrogen, Carlsbad, Calif.), and complementary DNA was purified using Qiagen's PCR purification kit (Valencia, Calif.). Complementary DNA from untreated samples was used for optimizing PCR conditions, with primers targeting the gene of interest. For the gene RANKL, the forward primer was 5′-[sequence]-3′ and the reverse primer was 5′-[sequence]-3′, for the OPG gene the forward primer was 5′-[sequence]-3′ and the reverse primer was 5′-[sequence]-3′, for the IL-6 gene the forward primer was 5′-[sequence]-3′ and the reverse primer was 5′-[sequence]-3′. In order to normalize the expression levels, GAPDH was used as a housekeeping gene with forward primer 5′-[sequence]-3′ and reverse primer 5′-[sequence]-3′. A standard curve was created using the untreated controls and the optimized PCR conditions for each set of primers on a Roche LightCycler 480 (Indianapolis, Ind.). Quantitative real-time PCR was performed using the LightCycler FastStart DNA MasterPLUS SYBR Green I kit with melting curve analysis provided by the LightCycler software.
TNF-α is utilized as an inflammatory cytokine to initiate the NF-κB pathway and subsequent effect on RANKL.

physchem = details: water
[1] = test system: GRE promoter construct (pGRE-SEAP); assay: Induction of transcription from GRE (GRE-SEAP promoter construct) in 293 cells; assay type: cell-based
Procedure: 293 cells were lipofected with GRE-SEAP plasmid in triplicate using 1 μg plasmid and 6 μg Lipofectamine per well in 24-well plates. […] After 24 hr of induction, 50 μl aliquots of growth media were analyzed for alkaline phosphatase activity using the SEAP fluorogenic assay following the manufacturer's instructions.

[2] = Hyaluronic acid release assay (dialysis)
Procedure: Hyaluronic acid sodium salt (Rooster Comb HA; Sigma) was diluted in PBS at 1 mg/ml to mimic an anionic glycosaminoglycan at a nominal interstitial concentration.

[3] = test system: neutrophils in the i.p. space; assay: Thioglycollate (TG) model of inflammation; assay type: in vivo, BALB/c mice
Procedure: Male, 6- to 8-week-old (20 g) BALB/c mice, six per group, were used. […] After 30 minutes, mice were injected i.p. with 1.5 mL of 3% TG in PBS containing 1% ethanol. At 4 hour post-TG, the i.p. fluid was collected and neutrophils were counted.

mouse lung = assay: AAV vectors co-formulated with DS or DS/D2S, intranasal instillation; assay type: in vivo, C57Bl/6 mice
Procedure: Cationic liposomes (DS/D2S) in a 1:1 mole ratio with DOPE (51 μg total lipid) were mixed with AAV (10^11 GC/dose) in equal volume at room temperature for 15 minutes prior to instillation. C57Bl/6 mice (6 to 8 weeks of age) were anesthetized by an i.p. injection of a 3:2 mixture of xylazil:ketamine. For dosing, mice were suspended from their dorsal incisors (hind quarters supported) and a dose of 10^11 GC of AAV vector was delivered as a 50 μl bolus into the nostrils.
To evaluate luciferase transgene expression, 250 μl of a 15 mg/ml luciferin solution (Caliper Life Sciences, Hopkinton, Mass.) was injected per 25 gram body mass by i.p. injection. Five minutes after luciferin injection the mice were anesthetized by an i.p. injection of a 3:2 mixture of xylazil:ketamine. Animals were imaged 15 minutes after the original luciferin injection with a high sensitivity CCD Xenogen IVIS bioluminescent imaging system (Caliper Life Sciences).
For lacZ transgene expression evaluation, lungs were harvested and inflated with a 1:1 mixture of PBS and OCT embedding compound. One lobe was then submerged in OCT, frozen in isopentane cooled with liquid nitrogen, and cryosectioned ([…]). Sections were fixed in 0.5% glutaraldehyde in PBS (Electron Microscopy Sciences, Hatfield, Pa.) for 10 minutes (4° C.) and then washed twice in PBS/1 mM MgCl2 (4° C.) and stained with X-gal substrate (5-bromo-4-chloro-3-indoyl-β-D-galactopyranoside) for 16 hours at 37° C. to reveal LacZ-positive cells. After being washed in PBS, sections were counterstained with nuclear fast red, dehydrated through a graded ethanol series and xylene, coverslipped, and imaged. The other lobe was placed in 2 ml of Lysis Buffer (Roche, Indianapolis, Ind.) and placed on ice. Directly after all samples were collected, each sample was homogenized for approximately 10 seconds. […] A mouse β-galactosidase enzyme-linked immunosorbent assay (ELISA) (Roche) was used on lung homogenates according to the manufacturer's instructions to quantitatively measure LacZ gene expression. […]

[4] = test system: bovine aortic endothelial cells; assay: Lipofection of BAEC with EGFP plasmid; assay type: cell-based; details: alone, unconjugated
Procedure: Bovine aortic endothelial cells (BAEC, passage 4-13) were passaged at a 1:3 split to 24-well culture plates, and then grown to dense confluence before lipofection. Growth medium was Dulbecco's modified Eagle's medium (DMEM) containing 10% heat inactivated charcoal-filtered (to remove steroid hormones) fetal calf serum (Hyclone), 0.30 mg/ml glutamine, 150 U/ml penicillin, and 0.15 mg/ml streptomycin (Gibco). 293 cells were grown under identical conditions. The plasmids pEGFP-N3 and pGRE-SEAP (Clontech) were used for expression of EGFP or secreted alkaline phosphatase under the regulation of CMV or GRE promoters, respectively. […] In other experiments, Lipofectamine 2000 (Invitrogen), in a 1:1 (wt) ratio with nucleic acid, was used according to the manufacturer's instructions.
For fluorescence microscopy and flow cytometry, pEGFP-N3 plasmid (Clontech, Palo Alto, Calif.) was used to generate GFP as the fluorescent reporter transgene protein. Cells were transfected in 6-well plates with each condition in duplicate. One day after GFP transfection, cells were imaged and then harvested in 500 ul PBS and kept on ice until analysis. A BD Biosciences (Franklin Lakes, N.J.) FACSCalibur flow cytometer was used to obtain fluorescence data with 50,000 counts recorded per condition.
EGFP expression was calibrated using 0 to 200 ng recombinant GFP (Clontech) in 750 μl PBS. […]

## C[C@@H]1C[C@H]2[C@@H]3CCC4=CC(=O)C=C[C@]4(C)[C@@]3(F)[C@@H](O)C[C@]2(C)[C@@]1(O)C(=O)CO [dexamethasone, reference compound]
Mouse lungs
  lung inflammation score by blinded pathologist: 0
osteoblasts
  reduction in IL-6 transcripts over control: 72%
physchem
  solubility: 100 µg/mL (≈ 255 µM)

## CC1C[C@H]2[C@@H]3CCC4=CC(=O)C=C[C@]4(C)[C@@]3(F)C(O)C[C@]2(C)[C@@]1(O)C(=O)CSCCCC(=N)NCCCNCCCCNCCCN.O=C(O)C(F)(F)F (stereo partly drawn) [DS, N-[3-({4-[(3-aminopropyl)amino]butyl}amino)propyl]-4-[(9-fluoro-11,17-dihydroxy-16-methyl-3,20-dioxopregna-1,4-dien-21-yl)sulfanyl]butanimidamide-TFA Salt]
[1]; 100 nM, 293 cells
  SEAP transcription from GRE promoter: statistically significant levels of SEAP transcription
[1]; Homo sapiens, HEK293, read-out: EC50 of transcription from GRE promoter construct (pGRE-SEAP)
  EC50: 0.01 to 0.1 µM
[2]; 24 hour period
  fraction eluted from HA: only a small fraction
[2]; in PBS
  half-life for dissociation from HA: 56 h
[2]; physiological salt buffer
  time remaining tightly bound to HA: over 24 hours
[3]; 5.85 mg/kg i.p. 30 minutes before TG, 4 hour post-TG
  reduction in neutrophil immigration versus vehicle: 60%
[3]; tested dose 5.85 mg/kg i.p.
  lethality: not lethal
Mouse lung; AAV2/6.2, ELISA, day 28
  lacZ transgene level in lung homogenate compared to control: higher average transgene levels
Mouse lung; AAV2/9, day 28
  luciferase luminescence in the lung: minimal luminescence in the lung
Mouse lung; day 56, formulation at day 0, re-administration day 28
  LacZ gene expression versus AAV2/9-LacZ alone (readministered control): 2 fold
osteoblasts
  reduction in IL-6 transcripts over control: 17%
  OPG/RANKL ratio: 1.67
physchem
  solubility: > 100000 µg/mL

## NCCCNCCCCNCCCN [Spermine, spermine]
[4]
  gene transfer activity: no detectable gene transfer activity

## TNF-α
osteoblasts
  OPG/RANKL ratio: 0.12
